# Activity calls are given as the source filed them. The rule behind the calls is not given here.
# System: Plasmodium falciparum
# Experiment: Antiplasmodial activity against chloroquine-resistant Plasmodium falciparum K1 infected in human erythrocytes measured after 72 hrs by malstat reagent based LDH release assay
# Type: functional, organism-based
# Conditions: K1, 72 h
row,Compound,IC50 [nM]
1,CN(CCNc1nc2ccccc2[nH]1)CCNc1ccnc2cc(Cl)ccc12,3100
2,CN(CCCNC(=O)C=Cc1ccc2ccccc2c1)CCCNc1ccnc2cc(Cl)ccc12,10
3,CN(CCNC(=O)C=Cc1ccc2ccccc2n1)CCNc1ccnc2cc(Cl)ccc12,870
4,CN(CCNc1ncccn1)CCNc1ccnc2cc(Cl)ccc12,750
5,CN(CCNc1ccc2ccccc2n1)CCNc1ccc2ccccc2n1,18000
6,CN(CCNc1ccc2ccccc2n1)CCNc1ccnc2cc(Cl)ccc12,370
7,CN(CCCNc1ccnc2cc(Cl)ccc12)CCCNc1ccnc2cc(Cl)ccc12,21
8,CN(CCCNc1ccc2ccccc2n1)CCCNc1ccnc2cc(Cl)ccc12,37
9,CN(CCNC(=O)C=Cc1cnc[nH]1)CCNc1ccnc2cc(Cl)ccc12,18000
10,CN(CCNC(=O)C=Cc1ccc2ccccc2c1)CCNc1ccnc2cc(Cl)ccc12,28
11,CN(CCNc1nccc2ccccc12)CCNc1ccnc2cc(Cl)ccc12,270
12,CN(CCNc1ccccn1)CCNc1ccnc2cc(Cl)ccc12,1100
13,CN(CCNc1nc2ccccc2[nH]1)CCNc1nc2ccccc2[nH]1,19000

# System: Plasmodium falciparum
# Experiment: Antiplasmodial activity against chloroquine-sensitive Plasmodium falciparum FCR-3 infected in human erythrocytes measured after 72 hrs by malstat reagent based LDH release assay
# Type: functional, organism-based
# Conditions: FCR-3/Gambia
row,Compound,IC50 [nM]
1,CN(CCNc1nc2ccccc2[nH]1)CCNc1ccnc2cc(Cl)ccc12,230
2,CN(CCCNC(=O)C=Cc1ccc2ccccc2c1)CCCNc1ccnc2cc(Cl)ccc12,4.9
3,CN(CCNC(=O)C=Cc1ccc2ccccc2n1)CCNc1ccnc2cc(Cl)ccc12,76
4,CN(CCNc1ncccn1)CCNc1ccnc2cc(Cl)ccc12,210
5,CN(CCNc1ccc2ccccc2n1)CCNc1ccc2ccccc2n1,21000
6,CN(CCNc1ccc2ccccc2n1)CCNc1ccnc2cc(Cl)ccc12,29
7,CN(CCCNc1ccnc2cc(Cl)ccc12)CCCNc1ccnc2cc(Cl)ccc12,97
8,CN(CCCNc1ccc2ccccc2n1)CCCNc1ccnc2cc(Cl)ccc12,0.92
9,CN(CCNC(=O)C=Cc1cnc[nH]1)CCNc1ccnc2cc(Cl)ccc12,750
10,CN(CCNC(=O)C=Cc1ccc2ccccc2c1)CCNc1ccnc2cc(Cl)ccc12,12
11,CN(CCNc1nccc2ccccc12)CCNc1ccnc2cc(Cl)ccc12,24
12,CN(CCNc1ccccn1)CCNc1ccnc2cc(Cl)ccc12,510
13,CN(CCNc1nc2ccccc2[nH]1)CCNc1nc2ccccc2[nH]1,17300

# System: not listed separately
# Experiment: Selectivity index, ratio of cytotoxic concentration for human MRC5 cells to IC50 for chloroquine-resistant Plasmodium falciparum K1 infected in human erythrocytes
# Conditions: not given
row,Compound,selectivity ratio
1,CN(CCNc1nc2ccccc2[nH]1)CCNc1ccnc2cc(Cl)ccc12,8.5
2,CN(CCCNC(=O)C=Cc1ccc2ccccc2c1)CCCNc1ccnc2cc(Cl)ccc12,140
3,CN(CCNC(=O)C=Cc1ccc2ccccc2n1)CCNc1ccnc2cc(Cl)ccc12,6
4,CN(CCNc1ncccn1)CCNc1ccnc2cc(Cl)ccc12,40
5,CN(CCNc1ccc2ccccc2n1)CCNc1ccc2ccccc2n1,17
6,CN(CCNc1ccc2ccccc2n1)CCNc1ccnc2cc(Cl)ccc12,36
7,CN(CCCNc1ccnc2cc(Cl)ccc12)CCCNc1ccnc2cc(Cl)ccc12,66
8,CN(CCCNc1ccc2ccccc2n1)CCCNc1ccnc2cc(Cl)ccc12,61
9,CN(CCNC(=O)C=Cc1cnc[nH]1)CCNc1ccnc2cc(Cl)ccc12,> 14
10,CN(CCNC(=O)C=Cc1ccc2ccccc2c1)CCNc1ccnc2cc(Cl)ccc12,1200
11,CN(CCNc1nccc2ccccc12)CCNc1ccnc2cc(Cl)ccc12,36
12,CN(CCNc1ccccn1)CCNc1ccnc2cc(Cl)ccc12,430
13,CN(CCNc1nc2ccccc2[nH]1)CCNc1nc2ccccc2[nH]1,4.7

# System: Plasmodium berghei
# Experiment: animal or person
# Type: functional
# Conditions: N, in Mus musculus, sc
row,Compound,inhibition in vivo at 30 mg/kg [%]
1,CN(CCNC(=O)C=Cc1ccc2ccccc2c1)CCNc1ccnc2cc(Cl)ccc12,100

# System: Plasmodium berghei
# Experiment: animal or person
# Type: functional
# Conditions: N, in Mus musculus, po
row,Compound,inhibition in vivo at 30 mg/kg [%]
1,CN(CCNC(=O)C=Cc1ccc2ccccc2c1)CCNc1ccnc2cc(Cl)ccc12,23.5

# System: Plasmodium berghei
# Experiment: Antimalarial activity against Plasmodium berghei N infected in mouse assessed as inhibition of parasitemia at 15 mg/kg, po once daily for 4 consecutive days starting from 2 hrs post infection measured on day 4 post last dose relative to control
# Type: functional
# Conditions: not given
row,Compound,inhibition in vivo at 15 mg/kg [%]
1,C[C@H]1[C@H](OC(=O)CCC(=O)O)O[C@@H]2O[C@@]3(C)CC[C@H]4[C@H](C)CC[C@@H]1[C@@]24OO3 [ARTESUNATE],95.2

# System: Plasmodium berghei
# Experiment: Antimalarial activity against Plasmodium berghei N infected in mouse assessed as mouse survival at 30 mg/kg, sc once daily for 4 consecutive days starting from 2 hrs post infection relative to control
# Type: functional
# Conditions: not given
row,Compound,survival at 30 mg/kg [%]
1,CN(CCNC(=O)C=Cc1ccc2ccccc2c1)CCNc1ccnc2cc(Cl)ccc12,223

# System: Plasmodium berghei
# Experiment: Antimalarial activity against Plasmodium berghei N infected in mouse assessed as mouse survival at 30 mg/kg, po once daily for 4 consecutive days starting from 2 hrs post infection relative to control
# Type: functional
# Conditions: not given
row,Compound,survival at 30 mg/kg [%]
1,CN(CCNC(=O)C=Cc1ccc2ccccc2c1)CCNc1ccnc2cc(Cl)ccc12,100

# System: Plasmodium berghei
# Experiment: Antimalarial activity against Plasmodium berghei N infected in mouse assessed as mouse survival at 15 mg/kg, po once daily for 4 consecutive days starting from 2 hrs post infection relative to control
# Type: functional
# Conditions: not given
row,Compound,survival at 15 mg/kg [%]
1,C[C@H]1[C@H](OC(=O)CCC(=O)O)O[C@@H]2O[C@@]3(C)CC[C@H]4[C@H](C)CC[C@@H]1[C@@]24OO3 [ARTESUNATE],103

# System: not listed separately
# Experiment: Binding affinity to hemin at pH 5.2 by ITC
# Conditions: not given
row,Compound,Activity
1,CCN(CC)CCCC(C)Nc1ccnc2cc(Cl)ccc12 (stereo unspecified) [CHLOROQUINE],Active
2,CN(CCCNc1ccc2ccccc2n1)CCCNc1ccnc2cc(Cl)ccc12,Active
3,CN(CCNC(=O)C=Cc1ccc2ccccc2c1)CCNc1ccnc2cc(Cl)ccc12,Active

# System: not listed separately
# Experiment: Inhibition of Plasmodium falciparum FCR-3 HDP expressed in Escherichia coli assessed as reduction in hemazoin formation
# Design: species or system Plasmodium falciparum FCR-3/Gambia
# Conditions: not given
row,Compound,IC50 [nM]
1,CCN(CC)CCCC(C)Nc1ccnc2cc(Cl)ccc12 (stereo unspecified) [CHLOROQUINE],46
2,CN(CCCNc1ccc2ccccc2n1)CCCNc1ccnc2cc(Cl)ccc12,0.92
3,CN(CCNC(=O)C=Cc1ccc2ccccc2c1)CCNc1ccnc2cc(Cl)ccc12,12

# Source: ChEMBL document CHEMBL4266001, “Potent Antimalarial Activity of Two Arenes Linked with Triamine Designed To Have Multiple Interactions with Heme” (ACS Med Chem Lett, 2018)
